This assay relates to Coccus viridis. The assay can be described thus: Example 11: drench of gardenia plants, Henderson-Tilton efficacy against nymphs. As to conditions: 48 mg active substance/1 potting compost, 20 G. It is filed as in vivo. On the procedure: Gardenia plants cv. […] The greenhouse temperature is 27° C. The test is evaluated 7, 15, 21 and 35 days after the treatment by determining the activity against nymphs on the leaves with the aid of the Henderson-Tilton method.

The values below come from US20120178786A9, “Use of tetramic acid derivatives for controlling pests by drenching, drip application, or dip application” (priority 2006, published 2012).

Structures are written as SMILES.

Regarding `CN/C(=N/CC1CCOC1)N[N+](=O)[O-]` (stereo not shown) [Dinotefuran, dinotefuran], the “Henderson-Tilton efficacy (%) against Coccus viridis” value runs as follows: (7 d after treatment) 0%; (15 d after treatment) 57%; (21 d after treatment) 85%; (35 d after treatment) 91%.
